Molecular target: 5-hydroxytryptamine receptor 5B (Mus musculus, UniProt P31387)
Sequence (P31387 whole entry): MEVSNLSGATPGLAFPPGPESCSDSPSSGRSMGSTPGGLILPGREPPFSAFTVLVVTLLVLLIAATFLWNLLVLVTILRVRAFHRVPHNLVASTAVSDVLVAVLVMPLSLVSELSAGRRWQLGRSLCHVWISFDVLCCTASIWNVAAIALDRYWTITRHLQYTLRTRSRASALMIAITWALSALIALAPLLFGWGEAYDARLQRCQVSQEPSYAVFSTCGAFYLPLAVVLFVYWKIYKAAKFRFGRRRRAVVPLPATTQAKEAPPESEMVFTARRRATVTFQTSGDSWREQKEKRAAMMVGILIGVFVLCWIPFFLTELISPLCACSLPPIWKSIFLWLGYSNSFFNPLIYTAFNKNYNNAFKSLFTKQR

| Structure (SMILES) | Ki [µM] |
| --- | --- |
| CCCN(CCC)C1CCc2cccc(O)c2C1 (stereo not drawn) | 0.398 |
| CC[C@@H](CO)NC(=O)[C@@H]1C=C2c3cccc4c3c(cn4C)C[C@H]2N(C)C1 | 0.126 |
| NCCc1ccc(O)c(O)c1 | > 10 |
| O=C(c1ccc(F)cc1)C1CCN(CCn2c(=O)[nH]c3ccccc3c2=O)CC1 [3-(2-{4-[(4-fluorophenyl)carbonyl]piperidin-1-yl}ethyl)-1,2,3,4-tetrahydroquinazoline-2,4-dione] | 1.58 |
| CN(C)CCc1c[nH]c2ccc(O)cc12 [3-[2-(dimethylamino)ethyl]indol-5-ol] | 1.58 |
| COc1ccc2[nH]cc(C3=CCNCC3)c2c1 [5-Methoxy-3-(1,2,3,6-tetrahydro-pyridin-4-yl)-1H-indole(RU-24969)] | 0.398 |
| CN1C[C@H](C(=O)N[C@]2(C)O[C@@]3(O)[C@@H]4CCCN4C(=O)[C@H](Cc4ccccc4)N3C2=O)C=C2c3cccc4[nH]cc(c34)C[C@H]21 [12'-hydroxy-2'-methyl-5'alpha-(phenylmethyl)ergotaman-3',6',18-trione] | 0.00316 |
| NCC(O)c1ccc(O)c(O)c1 (stereo not drawn) [Noradrenaline,(+)] | > 10 |
| CNS(=O)(=O)Cc1ccc2[nH]cc(CCN(C)C)c2c1 [Sumax] | 7.94 |
| FC(F)(F)c1cccc(N2CCNCC2)c1 [TFMPP] | 3.98 |
| NCCc1c[nH]c2ccc(O)cc12 [[3H]-5-HT] | 0.251 |
| NCCc1c[nH]c2ccc(C(N)=O)cc12 [[3H]-5-carboxamidotryptamine] | 0.0398 |
| CSc1ccc2c(c1)C(N1CCN(C)CC1)Cc1ccccc1S2 (stereo not drawn) [methanesulfonic acid;1-methyl-4-(3-methylsulfanyl-5,6-dihydrobenzo[b][1]benzothiepin-5-yl)piperazine] | 0.0158 |

Source: BindingDB's records for PubMed 8450829 (Cnrs, 1993)
